The target of this experiment is T1, ENPP1 (Homo sapiens, UniProt P22413).
T1 sequence (P22413 1-925): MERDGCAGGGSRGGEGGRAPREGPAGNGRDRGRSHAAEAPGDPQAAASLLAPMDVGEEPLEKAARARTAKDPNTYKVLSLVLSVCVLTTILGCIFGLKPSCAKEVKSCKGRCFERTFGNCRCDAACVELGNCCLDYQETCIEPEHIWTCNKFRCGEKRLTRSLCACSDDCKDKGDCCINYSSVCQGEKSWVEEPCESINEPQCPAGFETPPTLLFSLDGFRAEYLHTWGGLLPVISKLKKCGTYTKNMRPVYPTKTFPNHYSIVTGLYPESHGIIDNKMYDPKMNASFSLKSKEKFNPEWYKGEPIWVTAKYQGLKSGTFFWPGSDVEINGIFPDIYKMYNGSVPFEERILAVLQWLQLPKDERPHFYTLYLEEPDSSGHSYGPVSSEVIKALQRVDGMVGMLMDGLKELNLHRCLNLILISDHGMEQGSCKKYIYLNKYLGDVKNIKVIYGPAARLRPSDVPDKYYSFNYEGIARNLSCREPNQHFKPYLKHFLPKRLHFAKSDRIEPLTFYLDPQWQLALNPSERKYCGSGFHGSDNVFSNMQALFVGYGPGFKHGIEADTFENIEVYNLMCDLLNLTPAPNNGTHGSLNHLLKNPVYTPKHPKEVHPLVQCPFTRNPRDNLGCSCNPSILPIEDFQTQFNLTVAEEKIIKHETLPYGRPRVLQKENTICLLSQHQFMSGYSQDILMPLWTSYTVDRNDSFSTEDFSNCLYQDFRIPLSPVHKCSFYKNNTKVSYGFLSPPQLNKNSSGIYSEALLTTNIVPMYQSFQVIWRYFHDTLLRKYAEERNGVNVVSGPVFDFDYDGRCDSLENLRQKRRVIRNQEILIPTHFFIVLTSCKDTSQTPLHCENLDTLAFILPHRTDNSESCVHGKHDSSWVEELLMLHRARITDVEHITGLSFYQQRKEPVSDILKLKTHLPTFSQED
As to the kind of experiment: Indirect quantitation of 2',3'-cGAMP hydrolysis (AMP-Glo Assay kit). The format is biochemical. The note with it: cGAMP substrate; Ki from IC50 by Cheng-Prusoff; read-out: ENPP1 Inhibition -cGAMP: Ki.

Turning to `COc1cc2nccc(N(C)Cc3ccc(NS(N)(=O)=O)cc3)c2cc1OC` [Example 255, N-(4-(((6,7-dimethoxyquinolin-4-yl)(methyl)amino)methyl)phenyl)s ulfamide], the Ki – broadly, a dissociation constant, usually derived from enzyme kinetics or from competition with a known ligand – is over 1000 nM.

Consider `COc1cc2c(-c3ccc4c(c3)CN(S(N)(=O)=O)CC4)c(C#N)cnc2cn1` [Example 257, 7-(3-cyano-6-methoxy-1,7-naphthyridin-4-yl)-3,4-dihydroisoquinoline-2(1H)-sulfonamide], for which the Ki is over 1000 nM.

Consider `COc1ccc2c(Oc3ccc(NS(N)(=O)=O)cc3)ccnc2c1F` [Example 268, N-(4-((8-fluoro-7-methoxyquinolin-4-yl)oxy)phenyl)sulfamide], for which the Ki is over 1000 nM.

For the compound `COc1cc2ncc(-c3ccc(NS(N)(=O)=O)cc3)nc2cc1OC` [Example 270, N-(4-(6,7-dimethoxyquinoxalin-2-yl)phenyl)sulfamide], the Ki is over 1000 nM.

As for `COc1ccc2c(-c3ccc4c(c3)CNCC4)c(C#N)cnc2c1` [Example 276, 7-methoxy-4-(1,2,3,4-tetrahydroisoquinolin-7-yl)quinoline-3-carbonitrile], the Ki is over 1000 nM.

Take `COc1cc2ncc(-c3ccc(CNS(N)(=O)=O)cc3)nc2cc1OC` [Example 278, N-(4-(6,7-dimethoxyquinoxalin-2-yl)benzyl)sulfamide]: the Ki was over 1000 nM.

On to `COc1cc2ncc(Oc3ccc(NS(N)(=O)=O)cc3)nc2cc1OC` [Example 280, N-(4-((6,7-dimethoxyquinoxalin-2-yl)oxy)phenyl)sulfamide], for which the Ki is over 1000 nM.

For `COc1cc2ncc(Nc3ccc(NS(N)(=O)=O)cc3)nc2cc1OC` [Example 286, N-(4-((6,7-dimethoxyquinoxalin-2-yl)amino)phenyl)sulfamide], the Ki was over 1000 nM.

As for `COc1cc2ncnc(NC(C)(C)c3ccc(NS(N)(=O)=O)cc3)c2cc1OC` [Example 287, N-(4-(2-((6,7-dimethoxyquinazolin-4-yl)amino)propan-2-yl)phenyl)sulfamide], the inhibition constant Ki was over 1000 nM.

With `COc1cc2ncc(-c3ccc4c(c3)CN(S(N)(=O)=O)CC4)nc2cc1OC` [Example 295, 7-(6,7-dimethoxyquinoxalin-2-yl)-3,4-dihydroisoquinoline-2(1H)-sulfonamide], the Ki is over 1000 nM.

`NS(=O)(=O)Nc1ccc(Oc2ccnc3cc(F)ccc23)cc1` [Example 298, N-(4-((7-fluoroquinolin-4-yl)oxy)phenyl)sulfamide]: the inhibition constant (Ki) is over 1000 nM.

For `COc1ccc2c(Oc3ccc(N(Cc4ccccc4)S(N)(=O)=O)cc3)ccnc2c1` [Example 309, N-benzyl-N-(4-((7-methoxyquinolin-4-yl)oxy)phenyl)sulfamide], the inhibition constant (Ki) was 100 to 1000 nM.

Turning to `COc1ccc2c(Oc3ccc(N(C4CC4)S(N)(=O)=O)cc3)ccnc2c1` [Example 310, N-cyclopropyl-N-(4-((7-methoxyquinolin-4-yl)oxy)phenyl)sulfamide], the Ki was under 100 nM.

`COc1ccc2c(Oc3ccc4c(c3)CCC(=O)N4)ccnc2c1` [Example 318, 6-((7-methoxyquinolin-4-yl)oxy)-3,4-dihydroquinolin-2(1H)-one]: the Ki was over 1000 nM.

In the case of `COc1ccc2c(Oc3ccc(NS(N)(=O)=O)cn3)ccnc2c1` [Example 320, N-(6-((7-methoxyquinolin-4-yl)oxy)pyridin-3-yl)sulfamide], the Ki is under 100 nM.

As to `NS(=O)(=O)Nc1ccc(Oc2ccnc3[nH]ccc23)cc1` [Example 321, N-(4-((1H-pyrrolo[2,3-b]pyridin-4-yl)oxy)phenyl)sulfamide], the Ki was over 1000 nM.

As for `COc1ccc2c(Oc3ccc(NS(N)(=O)=O)cc3)ncnc2c1` [Example 322, N-(4-((7-methoxyquinazolin-4-yl)oxy)phenyl)sulfamide], the Ki is under 100 nM.

As to `COc1ccc2c(Oc3ccc(NS(N)(=O)=O)cc3OC)ccnc2c1` [Example 323, N-(3-methoxy-4-((7-methoxyquinolin-4-yl)oxy)phenyl)sulfamide], the Ki is over 1000 nM.

For the compound `COc1ccc2c(-c3ccc(CN(C4CC4)S(N)(=O)=O)cc3)ncnc2c1` [Example 324, N-cyclopropyl-N-(4-(7-methoxyquinazolin-4-yl)benzyl)sulfamide], the Ki is 100 to 1000 nM.

As to `COc1cc2ncnc(NCc3ccc4c(c3)COB4O)c2cc1OC` [Example 325, 5-(((6,7-dimethoxyquinazolin-4-yl)amino)methyl)benzo[c][1,2]oxa borol-1(3H)-ol], the Ki is under 100 nM.

For `COc1ccc2c(Oc3ccc(NS(N)(=O)=O)cc3C)ccnc2c1` [Example 326, N-(4-((7-methoxyquinolin-4-yl)oxy)-3-methylphenyl)sulfamide], the inhibition constant Ki is under 100 nM.

As to `COc1ccc2c(Oc3ccc(S(N)(=O)=O)cc3)c(C#N)cnc2c1` [Example 327, 4-((3-cyano-7-methoxyquinolin-4-yl)oxy)benzenesulfonamide], the Ki is under 100 nM.

Regarding `COc1ccc2c(-c3ccc(CNS(N)(=O)=O)cc3C)ccnc2c1` [Example 328, N-(4-(7-methoxyquinolin-4-yl)-3-methylbenzyl)sulfamide], the inhibitory constant (Ki) lay within 100 to 1000 nM.

In the case of `COc1ccc2c(Oc3ccc(NS(N)(=O)=O)cc3Cl)ccnc2c1` [Example 329, N-(3-chloro-4-((7-methoxyquinolin-4-yl)oxy)phenyl)sulfamide], the Ki lay in the range of 100 to 1000 nM.

In the case of `COc1cc2ncnc(Nc3ccc(CC(=O)O)cc3)c2cc1OC` [Example 332, 2-(4-((6,7-dimethoxyquinazolin-4-yl)amino)phenyl)acetic acid], the Ki is over 1000 nM.

For the compound `COc1cc2ncnc(-c3ccc(S(N)(=O)=O)cc3)c2cc1OC` [Example 333, 4-(6,7-dimethoxyquinazolin-4-yl)benzenesulfonamide], the inhibitory constant (Ki) is over 1000 nM.

In the case of `COc1cc2ncnc(N3CCC(CCNC(C)=O)CC3)c2cc1OC` [Example 335, N-(2-(1-(6,7-dimethoxyquinazolin-4-yl)piperidin-4-yl)ethyl)acetamide], the inhibitory constant (Ki) is 100 to 1000 nM.

Take `COc1cc2ncnc(NCc3ccc4c(c3)OCO4)c2cc1OC` [Example 336, N-(benzo[d][1,3]dioxol-5-ylmethyl)-6,7-dimethoxyquinazolin-4-amine]: the Ki is over 1000 nM.

`CCOc1ccc(S(=O)(=O)N2CCN(C)CC2)cc1-c1ncnc2cc(OC)c(OC)cc12` [Example 337, 4-(2-ethoxy-5-((4-methylpiperazin-1-yl)sulfonyl)phenyl)-6,7-dimethoxyquinazoline]: the Ki was over 1000 nM.

With `COc1cc2ncnc(N3CCC(CCNS(C)(=O)=O)CC3)c2cc1OC` [Example 338, N-(2-(1-(6,7-dimethoxyquinazolin-4-yl)piperidin-4-yl)ethyl)methanesulfonamide], the Ki was in the range of 100 to 1000 nM.

In the case of `COc1ccc(S(=O)(=O)N2CCN(CCO)CC2)cc1OC` [Example 340, 2-(4-((3,4-dimethoxyphenyl)sulfonyl)piperazin-1-yl)ethan-1-ol], the Ki is over 1000 nM.

`COc1cc2nccc(Oc3ccc(N)cc3)c2cc1OC` [Example 341, 4-((6,7-dimethoxyquinolin-4-yl)oxy)aniline]: the Ki is over 1000 nM.

With `COc1cc2nccc(Oc3ccc(N)c(F)c3)c2cc1OC` [Example 344, 4-((6,7-dimethoxyquinolin-4-yl)oxy)-2-fluoroaniline], the Ki is over 1000 nM.

Take `COc1ccc2nccc(Oc3ccc(NS(N)(=O)=O)cc3)c2n1` [Example 346, N-(4-((6-methoxy-1,5-naphthyridin-4-yl)oxy)phenyl)sulfamide]: the Ki was 100 to 1000 nM.
